Assay: xn = mol fraction of the nth substance listed
Conditions: 101 kPa, Liquid, Pycnometric method

CC(O)CCC(C)O (stereo not drawn) [2,5-hexanediol] + O
mass density [kg/m3]
Conditions	283.15 K	288.15 K	293.15 K	298.15 K	303.15 K	308.15 K
x1 = 0.0008	999.67	999.06	998.13	996.94	995.52	993.87
x1 = 0.002	999.6	998.98	998.04	996.84	995.4	993.73
x1 = 0.0037	999.53	998.88	997.94	996.73	995.27	993.58
x1 = 0.0073	999.48	998.82	997.86	996.6	995.14	993.42
x1 = 0.009	999.54	998.85	997.84	996.58	995.09	993.35
x1 = 0.0102	999.61	998.88	997.84	996.58	995.07	993.31
x1 = 0.0123	999.75	998.97	997.89	996.6	995.05	993.25
x1 = 0.0142	999.92	999.08	997.96	996.64	995.05	993.21
x1 = 0.0159	1000.08	999.2	998.04	996.68	995.06	993.19
x1 = 0.0177	1000.27	999.34	998.14	996.74	995.07	993.17
x1 = 0.0263	1001.32	1000.14	998.73	997.13	995.23	993.17
x1 = 0.0353	1002.49	1001.07	999.39	997.56	995.43	993.19
x1 = 0.0516	1004.41	1002.55	1000.35	998.09	995.59	993
x1 = 0.0672	1005.71	1003.37	1000.75	998.16	995.35	992.44
x1 = 0.0688	1005.83	1003.42	1000.76	998.14	995.31	992.36
x1 = 0.0821	1006.35	1003.53	1000.63	997.8	994.75	991.62
x1 = 0.098	1006.33	1003.14	1000.02	996.97	993.8	990.55
x1 = 0.112	1005.71	1002.53	999.19	996.16	992.78	989.51

CCCCC(O)CO (stereo not drawn) [1,2-hexanediol] + O
mass density [kg/m3]
Conditions	283.15 K	288.15 K	293.15 K	298.15 K	303.15 K	308.15 K
x1 = 0.0009	999.77	999.33	998.26	997.06	995.65	993.92
x1 = 0.0018	999.85	999.35	998.28	997.06	995.66	993.92
x1 = 0.0036	1000.05	999.43	998.39	997.13	995.76	993.98
x1 = 0.0055	1000.31	999.57	998.54	997.24	995.78	994.13
x1 = 0.0077	1000.69	999.81	998.75	997.43	995.64	994.227
x1 = 0.009	1000.93	999.97	998.86	997.49	995.53	994.278
x1 = 0.0106	1001.22	1000.16	998.97	997.52	995.37	994.276
x1 = 0.0124	1001.49	1000.33	999.03	997.47	995.17	994.141
x1 = 0.0143	1001.65	1000.41	999.01	997.32	994.93	993.817
x1 = 0.016	1001.69	1000.38	998.91	997.13	994.7	993.395
x1 = 0.0178	1001.64	1000.25	998.73	996.87	994.45	992.869
x1 = 0.0351	999.52	997.75	995.76	993.77	991.54	988.24
x1 = 0.0672	995.27	993.06	990.72	988.37	985.8	981.847
x1 = 0.0968	991.84	989.37	986.7	983.93	981.37	977.569
x1 = 0.1119	990.47	987.91	985.24	982.11	979.56	975.746
